Values of other authors, collected in PMC4203335 (International Journal of Oncology, 2014).

What was measured:
[1] = mice
[2] = tested on: Burkitt lymphoma xenografts
[3] = tested on: N-Myc-induced neuroblastoma
[4] = tested on: melanoma
[5] = tested on: SIRT1
[6] = tested on: colon xenograft

For `O=c1[nH]c(=S)[nH]c(-c2ccccc2)c1Cc1c(O)ccc2ccccc12` [Cambinol], the tolerability [1] is listed as “well tolerated” and the growth of xenografts [2] is listed as “significantly inhibited”.

For `CN(C)CCCCC(=O)Nc1ccc(NC(=S)NC(=O)c2ccc(C(C)(C)C)cc2)cc1` [Tenovin-6], the tumorigenesis [3] is listed as “suppressed tumorigenesis” and the tumorigenesis [4] is listed as “suppressed tumorigenesis”.

For `CC(C)=CCC[C@]1(C)[C@@H](CC=C(C)C)C[C@@]2(CC=C(C)C)C(=O)[C@]1(C(=O)C(C)C)C(=O)C(CC=C(C)C)=C2OCC(=O)O` [aristoforin], the SIRT1 inhibitory activity [5] is given as “have SIRT1 inhibitory activity”.

In the case of guttiferone G, the SIRT1 inhibitory activity [5] is listed as “have SIRT1 inhibitory activity”.

In the case of inauhzin, the xenograft growth [6] is listed as “reduced colon xenograft growth”.
